1 compound from paper PMC3885398, “Evaluation of the Antitumor Effects of BPR1J-340, a Potent and Selective FLT3 Inhibitor, Alone or in Combination with an HDAC Inhibitor, Vorinostat, in AML Cancer” (PLoS ONE, 2014) can be followed below.

What is called IC50 is the point on the concentration scale where inhibition reaches its midpoint. Low readings indicate inhibition by little substance, high ones a need for much substance.

For one data set, the system named is MOLM-13 tumor xenograft. As to the kind of experiment: Subcutaneous MOLM-13 tumor xenograft in nude mice. It is filed as in vivo. The method, then: Male nude mice (Nu-Fox1nu) of eight weeks old were purchased from BioLasco (Ilan, Taiwan). The nude mice (n = 5∼7 per group) were inoculated subcutaneously with MOLM-13 (1×10^6 cells/flank). All human cancer cells were determined to be free of Mycoplasma spp before the inoculation. When tumors size reached 100∼200 mm^3 and a large size of >500 mm^3, the animals were grouped and treated with the BPR1J-340 (5 and 20 mg/kg, i.v.) or vehicle as control once daily for 5 days per week for two or three weeks. Tumor sizes were measured and calculated with the formula of length×width^2/2 after the initiation of the treatments. Tumor size and animal body weight were measured twice a week after the tumor cell inoculation. At the end of the study, animals were euthanized by carbon dioxide inhalation followed by cervical dislocation. The significant difference between the treated and vehicle control were analyzed by using one-way ANOVA and Student-Newman-Keuls test. The level of a statistical significance was set at p<0.05.

In another data set the target is Aurora B kinase (Homo sapiens, UniProt Q96GD4). Nature of the data set: Aurora B kinase inhibition. It is filed as biochemical. As for the experimental part:
BPR1J-340, a urea-substituted 3-phenyl-1H-5-pyrazolylamine-based compound, was designed through chemical modification of sulfonamide series of derivatives (BPR1J-097 series) by a structure-activity relationship (SAR) study (Fig. 1), [32]. For kinase inhibition specificity screening, BPR1J-340 was tested against 59 protein kinases covering the major oncogenic kinases of human protein kinome. […] In addition, BPR1J-340 inhibited TRKA, which is associated with the growth and metastasis of breast cancers, with an IC50 value of 8 nM. Given the high similarity of the ATP binding pockets of FLT3 and the Aurora kinases, the inhibitory activity toward Aurora A and Aurora B were measured. […] Taken together, BPRJ-340 is a selective kinase inhibitor with in vitro activity against FLT3, VEGFR2, VEGFR3 and TRKA receptor tyrosine kinases.

Data set [1] addresses T1, FLT3 (wild-type, residues Y567-S993) (Homo sapiens, UniProt P36888).
T1 construct: FLT3 (residues Y567-S993); made in house
Nature of the data set: FLT3 Kinase-Glo kinase assay. It is filed as biochemical. (In Kinase-Glo more light means more ATP remaining.)
Procedure: All inhibitors were dissolved in dimethylsulfoxide (DMSO) at a stock concentration of 10 mM. […] The preparation of recombinant proteins, FLT3 (residues Y567-S993), VEGFR1 (residues R781-I1338) and VEGFR2 (residues V789-V1356), for biochemical kinase assay was described previously [29].
The FLT3 and VEGFR1/2 Kinase-Glo kinase assays were performed as reported by our earlier study [30].

The next data set deals with T2, FLT3 D835Y (Homo sapiens, UniProt P36888, D835Y).
T2 sequence (P36888 27-993 D835Y): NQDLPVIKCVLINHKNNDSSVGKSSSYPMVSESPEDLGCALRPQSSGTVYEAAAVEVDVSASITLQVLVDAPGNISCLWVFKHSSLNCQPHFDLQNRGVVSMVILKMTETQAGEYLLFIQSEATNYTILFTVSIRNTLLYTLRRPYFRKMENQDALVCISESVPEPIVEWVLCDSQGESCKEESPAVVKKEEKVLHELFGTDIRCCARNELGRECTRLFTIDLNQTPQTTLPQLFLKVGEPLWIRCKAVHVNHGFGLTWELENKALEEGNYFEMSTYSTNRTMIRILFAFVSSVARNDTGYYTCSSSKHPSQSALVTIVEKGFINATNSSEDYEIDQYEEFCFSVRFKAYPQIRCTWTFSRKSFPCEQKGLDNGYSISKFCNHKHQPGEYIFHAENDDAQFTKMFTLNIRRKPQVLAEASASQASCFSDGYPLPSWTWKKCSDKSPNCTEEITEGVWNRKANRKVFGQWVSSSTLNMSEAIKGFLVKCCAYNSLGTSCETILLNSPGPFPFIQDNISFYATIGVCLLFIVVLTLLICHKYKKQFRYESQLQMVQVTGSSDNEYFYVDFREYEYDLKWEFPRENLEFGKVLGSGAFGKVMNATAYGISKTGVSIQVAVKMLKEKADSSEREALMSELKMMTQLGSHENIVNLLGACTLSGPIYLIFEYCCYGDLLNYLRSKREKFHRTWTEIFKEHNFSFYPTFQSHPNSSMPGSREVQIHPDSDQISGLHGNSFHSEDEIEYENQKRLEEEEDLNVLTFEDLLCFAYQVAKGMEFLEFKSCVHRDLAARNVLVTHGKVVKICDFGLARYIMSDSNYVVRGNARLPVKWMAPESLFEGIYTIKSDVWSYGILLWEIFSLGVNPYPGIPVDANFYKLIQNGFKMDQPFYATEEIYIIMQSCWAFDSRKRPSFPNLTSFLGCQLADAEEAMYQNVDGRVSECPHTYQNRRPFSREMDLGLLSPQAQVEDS
As to the kind of experiment: FLT3 phosphorylation in transfected HEK293T cells, Western blot. The conditions noted are these: HEK293T cells expressing FLT3-D835Y, 1 hr, FLT3 ligand 50 ng/mL 5 min. It is filed as cell-based. The arrangement: expressed in transfected cells; host or cells: HEK293T. The method, then: Cells were lysed in lysis buffer (50 mM Tris, pH 8.0, 150 mM NaCl, 1% Triton X-100, 0.5% sodium deoxycholate, 0.1% SDS, 1 mM sodium orthovanadate, 1 mM PMSF, and 1 mM DTT). Protein lysates were resolved by SDS-PAGE and transferred onto a polyvinylidene difluoride (PVDF) membrane (Millipore, Bedford, MA, USA). The membranes were immunoblotted with appropriate antibodies and detected using the SuperSignal reagent (Pierce, Rockford, IL, USA) followed by exposure to X-ray film.
To address whether BPR1J-340 was able to inhibit the FLT3 signaling pathway in FLT3-driven cells, MV4;11 cells were treated with different concentrations of BPR1J-340 for 1 hour, and the phosphorylation status of FLT3 and STAT5 (Signal Transducer and Activator of Transcription 5), a critical down-stream modulator that plays a major role in FLT3-ITD signal transduction for cell expansion and survival, was examined by Western blot analysis. […] To investigate the difference in sensitivity between FLT3-WT and the activating mutants FLT3-ITD and FLT3-D835Y to BPR1J-340, HEK293T cells engineered to express FLT3-WT or mutants FLT3 (FLT3-ITD, FLT3-D835Y) were analyzed. […]
Figure 2 BPR1J-340 inhibits FLT3-dependent signaling. […] The phosphorylation status of FLT3 and STAT5 were evaluated by Western blot analysis. […] The FLT3 phosphorylation status in the transfected cells was evaluated by Western blot analysis.
A general note: A western blot detects proteins with antibodies after separation by electrophoresis.

“And” between values parts separate entries of the source, which are not always exact repeats. Equal values may be shown once. “Also recorded” adds a separate entry of the source.

Aurora B kinase, sequence (Q96GD4 whole entry): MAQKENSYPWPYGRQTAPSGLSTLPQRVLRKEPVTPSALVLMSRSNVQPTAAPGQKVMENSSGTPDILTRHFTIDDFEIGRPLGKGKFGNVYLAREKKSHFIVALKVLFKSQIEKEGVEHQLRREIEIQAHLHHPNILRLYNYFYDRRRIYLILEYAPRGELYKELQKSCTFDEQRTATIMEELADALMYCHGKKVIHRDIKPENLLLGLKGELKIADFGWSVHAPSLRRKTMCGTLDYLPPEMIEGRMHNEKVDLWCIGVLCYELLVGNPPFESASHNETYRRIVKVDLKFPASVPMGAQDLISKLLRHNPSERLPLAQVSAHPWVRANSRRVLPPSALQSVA

Consider `CCc1cc(NC(=O)NCc2ccc(-c3cc(NC(=O)c4ccc(CN5CCN(C)CC5)cc4)[nH]n3)cc2)no1` [BPR1J-340, N1-(3-4-[([(5-ethyl-3-isoxazolyl)amino]carbonylamino)methyl]phenyl-1H-5-pyrazolyl)-4-[(4-methylpiperazino)methyl]benzamide], for which the CR ratio in the data set with MOLM-13 tumor xenograft (5 mg/kg) came to 67%. The tumor response entry in the data set with MOLM-13 tumor xenograft (5 mg/kg i.v. qd, days 1–5 of each week for 3 weeks, tumors about 200 mm^3) was “complete regression of the tumor in all animals by day 22; also recorded: inhibited”. The “complete regression (CR), animals” value in the data set with MOLM-13 tumor xenograft (5 mg/kg i.v. qd, days 1–5 weekly for 3 weeks, within 31 days of post-treatment observation) is recorded as 4 of 6. In addition, in the data set with MOLM-13 tumor xenograft (20 mg/kg i.v., days 1–5 of each week for 2 weeks, average tumor volume 630 mm^3, 48-day follow up), the “tumor response, large tumors” value is “complete and durable tumor regression; also recorded: significantly reversed”. Moreover, the “body weight, mortality, tolerability” value with MOLM-13 tumor xenograft (nude mice, 5 and 20 mg/kg/day i.v.) is given as “well-tolerated”. Moreover, the concentration for half-maximal inhibition (IC50) was 1340 nM against Aurora B kinase; 29 ± 5 nM in data set [1]; 10 to 100 nM and ~100 nM on FLT3 D835Y.
